In brackets after ≈: the same amount, converted by molar mass.
Test system: Plasmodium falciparum
Experiment: In vitro antimalarial activity against Plasmodium falciparum 3D7
Format: functional, organism-based

COc1ccccc1/C=C/C(=O)c1ccccc1
IC50: 7.6 µg/mL (≈ 31.9 µM)

COc1ccc(Br)cc1/C=C/C(=O)c1ccccc1C
IC50: 9.3 µg/mL (≈ 28.1 µM)

Cc1ccccc1C(=O)C1=Cc2cc(Br)ccc2OC1
IC50: 13.5 µg/mL (≈ 41 µM)

COc1ccc(C(=O)C2=Cc3ccc(OC)cc3OC2)cc1
IC50: 13.3 µg/mL (≈ 44.9 µM)

COc1cccc2c1OCC(C(=O)c1ccccc1C)=C2
IC50: 15.1 µg/mL (≈ 53.9 µM)

COc1ccc(Br)cc1/C=C/C(=O)c1ccc(C)cc1
IC50: 10 µg/mL (≈ 30.2 µM)

O=C(C1=Cc2ccccc2OC1)c1ccccc1
IC50: 4.7 µg/mL (≈ 19.9 µM)

Cc1ccc(C(=O)C2=Cc3cc(Br)ccc3OC2)cc1
IC50: 8.6 µg/mL (≈ 26.1 µM)

O=C(C1=C(c2ccccc2)CCC1)c1ccccc1
IC50: 35 µg/mL (≈ 141 µM)

COc1cccc(/C=C/C(=O)c2ccccc2C)c1OC
IC50: 11 µg/mL (≈ 39 µM)

COc1ccc(C(=O)/C=C/c2ccc(OC)cc2OC)cc1
IC50: 6 µg/mL (≈ 20.1 µM)

COc1ccc(C(=O)C2=C(c3ccc(OC)cc3)CCC2)cc1
IC50: > 100 µg/mL

COc1ccc(/C=C/C(=O)c2ccc(OC)cc2)cc1 [4,4'-DIMETHOXYCHALCONE]
IC50: 8.9 µg/mL (≈ 33.2 µM)

O=C(/C=C/c1ccccc1)c1ccccc1 [CHALCONE]
IC50: 6.7 µg/mL (≈ 32.2 µM)

C=CC(C)(C)c1cc(/C=C/C(=O)c2ccc(O)cc2)c(OC)cc1O [LICOAGROCHACONE A]
IC50: 2.2 µg/mL (≈ 6.5 µM)
